From US4853403A, “3-phenylthiomethylstyrene derivative, process for preparing the same, and antiallergic agent and tyrosinekinase inhibiting agent containing the same” (Kanegafuchi Kagaku Kogyo Kabushiki Kaisha, priority 1985, dated 1989) come the findings set out here.

The subject of test [1] is antigen-induced anaphylactic shock death. Description: Protective effect against anaphylactic shock in actively sensitized guinea pigs. The format is in vivo, guinea pig (male). Conditions: Cavia porcellus, oral, 30 minutes before antigen inhalation, survival 90 minutes or more, read-out: Protecting Effect (Number of test animal survivied/Number of test animal) (converted). As to the method:
[III] Protective effect against anaphylactic shock in actively sensitized guinea pigs
Antigen-induced anaphylactic shock death was observed according to John P. Devlin [Pulmonary and Antiallergic Drugs, John Wiley & Sons, 155 (1985)].
Each 100 mg/kg of ovalbumin dissolved in physiological saline was injected into peritoneal cavity and into gluteus of male guinea pigs weighing 250 to 350 g. 3 Days later, the animals were further injected intraperitoneally with ovalbumin (100 mg/kg). Those animals were employed for testing 3 to 4 weeks after first sensitization. Actively sensitized guinea pigs were pretreated subcutaneously with pyrilamine (1 mg/kg, 30 min.) to suppress histamine-dependent response and with propanolol ([…], 10 min.) to enhance the response induced by other than histamine before the antigen.
The animal was placed in a desiccator with a capacity of about 5 l and 0.5% aqueous solution of ovalbumin was inhaled with ultrasonic type nebulizer for five minutes. Anaphylactic shock death was observed and the animals survived for 90 minutes or more after antigen were estimated to be protected. The compounds of the present invention and antiasmatic agent were administered orally 30 minutes before the antigen inhalation. The control received vehicle alone similarly.

In test [2] the target is T1, epidermal growth factor acceptor-tyrosinekinase complex (Homo sapiens, UniProt P00533).
T1 construct: endogenous in cells; host or cells: A-431 (membrane specimen, not solubilized)
T1 sequence (P00533 25-1210): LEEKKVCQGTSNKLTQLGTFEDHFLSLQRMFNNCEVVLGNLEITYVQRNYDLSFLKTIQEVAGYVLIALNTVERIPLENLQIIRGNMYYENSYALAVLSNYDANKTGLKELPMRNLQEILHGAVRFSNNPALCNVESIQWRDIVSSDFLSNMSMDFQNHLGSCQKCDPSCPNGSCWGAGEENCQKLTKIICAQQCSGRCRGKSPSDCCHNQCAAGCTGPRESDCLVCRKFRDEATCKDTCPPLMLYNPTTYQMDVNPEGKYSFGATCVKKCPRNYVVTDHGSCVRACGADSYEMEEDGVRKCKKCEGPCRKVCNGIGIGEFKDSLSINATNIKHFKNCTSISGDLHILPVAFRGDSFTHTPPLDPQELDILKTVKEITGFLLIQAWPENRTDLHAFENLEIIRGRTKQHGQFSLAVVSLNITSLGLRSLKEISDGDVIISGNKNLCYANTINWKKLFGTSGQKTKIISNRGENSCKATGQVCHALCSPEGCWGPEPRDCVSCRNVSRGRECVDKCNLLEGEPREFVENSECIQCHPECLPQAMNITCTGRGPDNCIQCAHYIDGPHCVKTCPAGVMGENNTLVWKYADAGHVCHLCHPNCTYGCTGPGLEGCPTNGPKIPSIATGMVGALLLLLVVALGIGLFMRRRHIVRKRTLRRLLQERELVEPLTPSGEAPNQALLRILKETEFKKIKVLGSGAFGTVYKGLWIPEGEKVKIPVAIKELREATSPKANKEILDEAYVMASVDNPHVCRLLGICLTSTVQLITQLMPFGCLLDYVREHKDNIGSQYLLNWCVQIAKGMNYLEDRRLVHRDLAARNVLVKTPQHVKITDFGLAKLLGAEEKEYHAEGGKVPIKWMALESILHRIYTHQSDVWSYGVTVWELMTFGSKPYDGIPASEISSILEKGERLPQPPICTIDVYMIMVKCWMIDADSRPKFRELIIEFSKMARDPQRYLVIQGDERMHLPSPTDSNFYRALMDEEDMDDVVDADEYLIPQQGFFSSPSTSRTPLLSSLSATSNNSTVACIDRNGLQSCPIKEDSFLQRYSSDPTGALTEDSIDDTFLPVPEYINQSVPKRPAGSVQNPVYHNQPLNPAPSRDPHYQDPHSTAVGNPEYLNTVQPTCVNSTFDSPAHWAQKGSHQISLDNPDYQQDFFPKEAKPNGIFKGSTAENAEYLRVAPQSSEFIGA
T1 sequence (P01132 977-1029 partner limits assumed): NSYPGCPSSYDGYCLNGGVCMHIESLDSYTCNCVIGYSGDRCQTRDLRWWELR
Description: Tyrosinekinase inhibitory activity (A-431 membrane specimen, EGF-stimulated, [γ-32P]ATP). The format is biochemical, human (A-431 cell line derived from human cancerous cell). The note with it: read-out: Inhibition rate (tyrosinekinase). As to the method: Tyrosinekinase inhibitory activity of the compound of the present invention was measured by employing a method for measuring tyrosinekinase activity by G. Carpentor or by S. Cohen et al. [J. Biol. Chem., 254, 4884 (1979); J. Biol. Chem., 257, 1523 (1982)].
Cell line A-431 derived from human cancerous cell was cultured at 37° C. under the condition of 5% CO2 in Dulbecco's modified Eagle medium (made by DAINIPPON PHARMACEUTICAL CO., LTD.) containing 10% fetal bovine serum, 50 μg/ml of streptomycin, 50 IU/ml of penicillin G and 50 μg/ml of canamycin. The obtained cells were treated according to the above Cohen or Graham et al. to give membrane specimen containing epidermal growth factor acceptor-tyrosinekinase complex (hereinafter referred to as "membrane specimen"). The membrane specimen was employed in the following measurement without solubilization.
Sample dissolved in dimethylsulfoxide was added to a mixture of 20 mM of N-2-hydroxyethylpyperadino-N'-2-ethanesulfonate buffer (pH 7.4), 1 mM of MnCl2, 7.5 μg of bovine serum albumin and the membrane specimen (10 μg as protein). After incubation at 0° C. for 5 minutes, 100 ng of epidermal growth factor (hereinafter referred to as "EGF" was added and the mixture was further incubated at 0° C. for 15 minutes. [γ-^32 P]ATP (3000 Ci/mmol, 0.1 μCi) was added to make final volume of 70 μl. After incubation at 0° C. for 15 minutes, 50 μl of the reaction solution was soaked into Wattman 3 MM filter paper and immediately the reaction was stopped by 10% trichloroacetic acid-10 mM sodium pyrophosphate aqueous solution. The filter paper was sufficiently washed with the same solution and then washed with ethanol and dried. Radioactivity present in the filter paper was measured by liquid scintillation counter (A). Similarly, radioactivity was measured in case of the reaction without EGF (B), the reaction without the sample (C), and the reaction without both EGF and the sample (D) as a control.
Tyrosinekinase inhibition rate (%) was calculated by the following equation. [formula]

In test [3] the test system is homologous passive cutaneous anaphylaxis (PCA). Description: Inhibitory activity against homologous passive cutaneous anaphylaxis (PCA) in rats. Conditions: 300 mg/kg, oral, 30 minutes before the antigen (tranilast). The format is in vivo, rat (male Wistar). The protocol:
[II]Inhibitory activity against homologous passive cutaneous anaphylaxis (PCA) in rats
Antiserum was prepared according to I. Mota [Immunology, 7, 681(1964)] and the PCA reaction was conducted according to Maruyama et al. [Nippon yakurigakkaishi, 74, 179(1978)].
(1) Preparation of antiserum
An ovalbumin solution (2 mg/ml) was injected intramuscularly into both thighs of male Wistar rats weighing 200 to 260 g in a volume of 0.5 ml/100 g body weight, and pertussis vaccine (Bordetella pertussis, 2×10^10 /ml, Chibaken Kessei Kenkyujo) was intraperitoneally administered at 1 ml/rat. Twelve days later, blood was taken from posterior aorta under ether anesthesia and antiserum was stored at -80° C.
Group of 4 male Wistar rats weighing 180 to 210 g were employed. Back of the animals was shaved and each 0.05 ml of antiserum (1:32 dilution) was injected intradermally at four sites on the back. After 48 hours, 1 ml of a mixture of ovalbumin (1 mg/ml) and Evans blue (5 mg/ml) was injected intravenously into the tail. 30 Minutes later, the animals were killed under ether anesthesia. The blue-dyed area (mm^2) formed was measured and an inhibition rate(%) was calculated as compared with control.
Test compound suspended in a 2.5% acacia containing 0.2% Tween 80 was administered orally in a volume of 0.5 ml/100 g body weight 1 hour before the antigen. Tranilast was administered orally 30 minutes before the antigen.

Molecules are shown by their SMILES. Like-named read-outs stand apart in the source and are kept apart here.

As a reminder, the inhibition is the relative decrease from the control value, in per cent. On to `CCOc1cc(C=C2C(=O)NN(c3ccccc3)C2=O)cc(CSc2ccc(Br)cc2)c1O` [XXXIII], for which the responders at 30 mg/kg in test [1] is 75%. For the same compound, the inhibition at 10 µM in test [2] (10 μM) was determined as 71%.
`CCOc1cc(C=C(C#N)C(N)=O)cc(CSc2ccc(C)cc2)c1O` [IX]: in test [1], the responders at 30 mg/kg was 50%. Moreover, the inhibition at 10 µM in test [2] (10 μM) amounted to 58%.
Regarding `CCOc1cc(C=C(C#N)C(N)=O)cc(CSc2ccc(Cl)cc2)c1O` [XIV], the responders at 30 mg/kg in test [1] was 100%. The inhibition at 10 µM in test [2] (10 μM) turned out to be 29%.
`CCOc1cc(C=C(C#N)C(N)=O)cc(CSc2cccc(OC)c2)c1O` [VIII]: the responders at 100 mg/kg in test [1] was 25%. In addition, the inhibition at 10 µM in test [2] (10 μM) turned out to be 72%.
Regarding `CCOc1cc(C=C2C(=O)NN(c3ccccc3)C2=O)cc(CSc2ccc(Cl)cc2)c1O` [XXXVI], the responders at 100 mg/kg in test [1] was 25%. Further, the inhibition at 10 µM in test [2] (10 μM) was determined as 91%.
Taken in the same sequence, the figures for `CCOc1cc(C=C(C#N)C(N)=O)cc(CSc2ccccc2)c1OC(C)=O` [XVII] were 25% and 36%.
On to `CCOc1cc(C=C(C#N)C(N)=O)cc(CSc2ccc(Cl)c(Cl)c2)c1O` [XV], for which the responders at 30 mg/kg in test [1] is 100%. In addition, the inhibition at 10 µM in test [2] (10 μM) came out at 69%.
Regarding `COc1cc(C=C2C(=O)NN(c3ccccc3)C2=O)cc(CSc2ccccc2)c1O` [XXXII], the responders at 100 mg/kg in test [1] is 25%. Further, the inhibition at 10 µM in test [2] (10 μM) came to 100%.
For `COc1cc(C=C(C#N)C(N)=O)cc(CSc2ccccc2)c1O` [XII], in test [1], the responders at 30 mg/kg was 50%. Further, the inhibition at 10 µM in test [2] was 86%.
In the case of `CCOc1cc(C=C(C#N)C(N)=O)cc(CSc2ccccc2C(=O)OC)c1OC(C)=O` [XXI], the responders at 100 mg/kg in test [1] was 25%. Besides, the inhibition at 10 µM in test [2] (10 μM) stood at 31%.
`N#CC(=Cc1cc(O)c(O)c(CSc2ccccc2)c1)C(N)=O` [XIX]: the responders at 100 mg/kg in test [1] is 25%. Also, the inhibition at 10 µM in test [2] (10 μM) worked out at 100%.
Take `CCOc1cc(C=C(C#N)C(N)=O)cc(CSc2ccc(O)cc2)c1O` [XX]: the responders at 100 mg/kg in test [1] was 25%. In test [2] (10 μM), the inhibition at 10 µM was determined as 91%.
For the compound `CCOc1cc(C=C(C#N)C(N)=O)cc(CSc2ccc(OC)cc2)c1O` [II], the responders at 30 mg/kg in test [1] was 75%. Further, in test [2] (10 μM), the inhibition at 10 µM was 42%.
Regarding `CCOc1cc(C=C(C#N)C(N)=O)cc(CSc2ccccc2OC)c1O` [VII], the responders at 30 mg/kg in test [1] is 75%. Besides, the inhibition at 10 µM in test [2] (10 μM) was 77%.
With `CCOc1cc(C=C(C#N)C(N)=O)cc(CSc2ccccc2)c1OC(=O)c1ccccc1` [XVI], in test [1], the responders at 100 mg/kg is 25%. Also, the inhibition at 10 µM in test [2] (10 μM) came out at 40%.
On to `CCOc1cc(C=C(C#N)C(N)=O)cc(CSc2cccc(Cl)c2)c1O` [XI], for which the responders at 100 mg/kg in test [1] is 25%. In addition, the inhibition at 10 µM in test [2] (10 μM) stood at 54%.
`COc1cc(C=C2CCNC2=O)cc(CSc2ccc(C)cc2)c1O` [XXVIII]: the responders at 100 mg/kg in test [1] is 25%. For the same compound, in test [2] (10 μM), the inhibition at 10 µM was 55%.
Turning to `CCOc1cc(C=C(C#N)C(N)=O)cc(CSc2c(F)c(F)c(F)c(F)c2F)c1O` [V], the responders at 30 mg/kg in test [1] was 50%. Besides, the inhibition at 10 µM in test [2] (10 μM) stood at 60%.
On to `CCOc1cc(C=C(C#N)C(N)=O)cc(CSc2c(Cl)cccc2Cl)c1O` [X], for which, in test [1], the responders at 30 mg/kg is 75%. In addition, in test [2] (10 μM), the inhibition at 10 µM was 44%.
As to `CCOc1cc(C=C2CCOC2=O)cc(CSc2ccc(Cl)c(Cl)c2)c1O` [XXV], the responders at 30 mg/kg in test [1] was 75%. In addition, the inhibition at 10 µM in test [2] (10 μM) stood at 27%.
With `CCOc1cc(C=C(C#N)C(N)=O)cc(CSc2ccc(Br)cc2)c1O` [IV], the responders at 100 mg/kg in test [1] is 25%. In test [2] (10 μM), the inhibition at 10 µM came to 74%.
With `CCOc1cc(C=C2CCNC2=O)cc(CSc2ccccc2)c1OC(=O)c1ccccc1` [XXX], the responders at 30 mg/kg in test [1] was 50%. For the same compound, the inhibition at 10 µM in test [2] (10 μM) worked out at 32%.
The like results for `CCOc1cc(C=C(C#N)C(N)=O)cc(CSc2ccccc2)c1OC` [XIII] were, in that order, 50% and 31%.
For `CCOc1cc(C=C2CCNC2=O)cc(CSc2ccc(OC)cc2)c1OC` [XXIX], the responders at 100 mg/kg in test [1] is 25%. The inhibition at 10 µM in test [2] (10 μM) was found to be 30%.
The like results for `CCOC(=O)C(=Cc1cc(CSc2ccc(C(C)(C)C)cc2)c(O)c(OCC)c1)S(C)(=O)=O` [XXIII] were, in that order, 25% and 40%.
Regarding `O=C1NN(c2ccccc2)C(=O)C1=Cc1cc(O)c(O)c(CSc2ccccc2)c1` [XXXIV], the responders at 30 mg/kg in test [1] is 50%. For the same compound, in test [2] (10 μM), the inhibition at 10 µM is 96%.
As for `O=C1OCCC1=Cc1cc(O)c(O)c(CSc2ccc([N+](=O)[O-])cc2)c1` [XXVI], the responders at 100 mg/kg in test [1] is 25%. Further, the inhibition at 10 µM in test [2] (10 μM) was 35%.
Consider `CCCCOc1cc(C=C2C(=O)NN(c3ccccc3)C2=O)cc(CSc2ccccc2)c1O` [XXXV], for which, in test [1], the responders at 100 mg/kg was 25%. Moreover, the inhibition at 10 µM in test [2] (10 μM) stood at 100%.
With `CCOc1cc(C=C(C#N)C(N)=O)cc(CSCCCc2ccccc2)c1O` [VI], the responders at 100 mg/kg in test [1] is 25%. The inhibition at 10 µM in test [2] (10 μM) was found to be 55%.
Take `CCOc1cc(C=C(C#N)C(N)=O)cc(CSc2ccc(C(C)(C)C)cc2)c1O` [XVIII]: the responders at 30 mg/kg in test [1] was 75%. The inhibition at 10 µM in test [2] (10 μM) was determined as 37%.
As for `CCOc1cc(C=C(C#N)C(N)=O)cc(CSc2ccc([N+](=O)[O-])cc2)c1O` [III], the responders at 100 mg/kg in test [1] is 25%. The inhibition at 10 µM in test [2] (10 μM) was determined as 42%.
Take `Cn1c(=O)c2[nH]cnc2n(C)c1=O` [theophylline, reference compound]: the responders at 30 mg/kg in test [1] is 50%.
`COc1ccc(/C=C/C(=O)Nc2ccccc2C(=O)O)cc1OC` [tranilast, reference compound]: the “Inhibition rate (PCA reaction, blue-dyed area)” value in test [3] came to 40%. In addition, in test [1], the responders at 100 mg/kg is 0%.
